Data published in patent publication US20240158446A1, “CYCLIC COMPOUND HAVING SELECTIVE INHIBITORY ACTION ON KRAS OVER HRAS AND NRAS” (CHUGAI SEIYAKU KABUSHIKI KAISHA, priority 2021, published 2024).
Where two headings read alike, the source gives them in different places. Where a SMILES comes first, the peptide text is derived from it. Bridges are numbered along the chain shown (N, C = ends). [ ]: non-standard residue; d: D form. The star is where a group is joined. hPhe(3-Cl-4-CF3) = N[C@@H](CCc1ccc(C(F)(F)F)c(Cl)c1)C(=O)O; NPrPhe(4-CF3) = CCCN[C@@H](Cc1ccc(C(F)(F)F)cc1)C(=O)O; NMeGly(cPent) = CN[C@H](C(=O)O)C1CCCC1; NMeD = CN[C@@H](CC(=O)O)C(=O)O; NMeL = CN[C@@H](CC(C)C)C(=O)O; Oxazolidin(3-yl) = C1CN(*)CO1; Ac5c = NC1(C(=O)O)CCCC1; Sar = CNCC(=O)O

How the values were obtained:
[1] = target: GDP-bound HRAS wild-type protein (Homo sapiens, UniProt P01112); assay: Binding to HRAS by surface plasmon resonance (SPR), Single Cycle Kinetics; details: SPR; for HRAS/KRAS (ratio of KD value for HRAS to KD value for KRAS): GDP-bound HRAS wild-type protein vs GDP-bound KRAS wild-type protein
GDP-bound HRAS wild-type protein, sequence (P01112 whole entry): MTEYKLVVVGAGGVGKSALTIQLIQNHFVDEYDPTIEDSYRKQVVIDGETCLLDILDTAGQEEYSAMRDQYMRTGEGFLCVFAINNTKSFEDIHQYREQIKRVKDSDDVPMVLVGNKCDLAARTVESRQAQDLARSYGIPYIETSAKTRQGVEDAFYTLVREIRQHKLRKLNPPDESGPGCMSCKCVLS

[2] = system: human lung cancer strain NCI-H441;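 note: cell proliferation inhibition after four days measured by CellTiter-Glo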
[3] = target: GDP-bound NRAS wild-type protein (Homo sapiens, UniProt P01111); assay: Binding to NRAS by surface plasmon resonance (SPR), Single Cycle Kinetics; details: SPR; for NRAS/KRAS (ratio of KD value for NRAS to KD value for KRAS): GDP-bound NRAS wild-type protein vs GDP-bound KRAS wild-type protein
GDP-bound NRAS wild-type protein, sequence (P01111 whole entry): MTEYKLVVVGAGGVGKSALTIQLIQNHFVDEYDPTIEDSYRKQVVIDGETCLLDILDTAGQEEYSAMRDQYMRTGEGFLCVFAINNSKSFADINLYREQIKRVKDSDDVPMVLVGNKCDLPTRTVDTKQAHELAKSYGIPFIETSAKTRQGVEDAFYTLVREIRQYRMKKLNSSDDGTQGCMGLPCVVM

[4] = target: GDP-bound KRAS wild-type protein (Homo sapiens, UniProt P01116); assay: Binding to KRAS by surface plasmon resonance (SPR), Single Cycle Kinetics; details: GDP-bound KRAS wild-type protein, read-out: KRAS KD
GDP-bound KRAS wild-type protein, sequence (P01116 whole entry): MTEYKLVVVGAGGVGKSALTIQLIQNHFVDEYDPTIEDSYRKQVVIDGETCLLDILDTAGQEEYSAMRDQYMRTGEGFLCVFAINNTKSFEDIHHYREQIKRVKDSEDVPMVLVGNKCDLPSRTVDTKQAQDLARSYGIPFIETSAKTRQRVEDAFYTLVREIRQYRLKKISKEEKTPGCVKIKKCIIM

[5] = SPR, Single Cycle Kinetics, 1:1 binding model

CCCOC[C@H]1C(=O)N[C@@H]([C@@H](C)CC)C(=O)N(C)CC(=O)N(C)[C@H]2C/C=C\CCN(C2=O)[C@@H](Cc2ccc(C(F)(F)F)cc2)C(=O)N(C)CC(=O)N[C@@H](CCc2cc(F)c(C(F)(F)F)c(F)c2)C(=O)N2C[C@H](OCC)C[C@H]2C(=O)NC2(CCCC2)C(=O)N(C)[C@@H](C2CCCC2)C(=O)N(C)[C@H](C(=O)N2CCCC2)CC(=O)N1C [PP1399]
HRAS/KRAS (ratio of KD value for HRAS to KD value for KRAS) ([1]; KD ratio class): A (a compound having 10 or more and less than 20 is denoted as A)
IC50 [2]: 18.8 nM
NRAS/KRAS (ratio of KD value for NRAS to KD value for KRAS) ([3]; KD ratio class): A (a compound having 10 or more and less than 20 is denoted as A)
Kd [4, 5]: 0.19 nM

CC[C@H](C)[C@@H]1NC(=O)[C@@H]2CCCc3ccc(cc3)C[C@@H](C(=O)N(C)CC(=O)N[C@@H](CCc3ccc(C(F)(F)F)c(OC)c3)C(=O)N3CC4(CC4)C[C@H]3C(=O)NC3(CC(C)(C)C3)C(=O)N(C)[C@@H](C3CCCC3)C(=O)N(C)[C@H](C(=O)N(C)CC)CC(=O)N2C)N2CC/C=C\C[C@@H](C2=O)N(C)C(=O)CN(C)C1=O [PP3087]
HRAS/KRAS (ratio of KD value for HRAS to KD value for KRAS) [1]: B (a compound having 3 or more and less than 10 is denoted as B)
ratio of the KD value with respect to GDP-bound HRAS wild-type protein to the KD value with respect to KRAS ([1]; KD(HRAS)/KD(KRAS)): B (a compound having 3 or more and less than 10 is denoted as B)
IC50 ([2]; read-out: NCI-H441 cell proliferation inhibitory activity, 50% proliferation inhibitory concentration (IC50 value), NCI-H441, four days, CellTiter-Glo): 6.9 nM
NRAS/KRAS (ratio of KD value for NRAS to KD value for KRAS) [3]: A (a compound having 10 or more and less than 20 is denoted as A)
ratio of the KD value with respect to GDP-bound NRAS wild-type protein to the KD value with respect to KRAS ([3]; KD(NRAS)/KD(KRAS)): A (a compound having 10 or more and less than 20 is denoted as A)
Kd ([4]; SPR, Single Cycle Kinetics): 0.22 nM

CCCN1C(=O)CN(C)C(=O)CN(C)C(=O)[C@H]([C@@H](C)CC)NC(=O)[C@H](CC(C)C)N(C)C(=O)C[C@@H](C(=O)N2CCOC2)N(C)C(=O)[C@H](C2CCCC2)N(C)C(=O)C2(CCCC2)NC(=O)[C@@H]2CCCN2C(=O)[C@H](CCc2ccc(C(F)(F)F)c(Cl)c2)NC(=O)CN(C)C(=O)[C@@H]1Cc1ccc(C(F)(F)F)cc1 [PP0174] ([NMeL]I[Sar][Sar][NPrPhe(4-CF3)][Sar][hPhe(3-Cl-4-CF3)]P[Ac5c][NMeGly(cPent)][NMeD]-{Oxazolidin(3-yl)}; lactam N-11)
HRAS/KRAS (ratio of KD value for HRAS to KD value for KRAS) [1]: B (a compound having 3 or more and less than 10 is denoted as B)
IC50 [2]: 5.2 nM
NRAS/KRAS (ratio of KD value for NRAS to KD value for KRAS) [3]: B (a compound having 3 or more and less than 10 is denoted as B)
Kd ([4]; SPR Single Cycle Kinetics, 1:1 binding model): 0.15 nM

CCO[C@@H]1C[C@H]2C(=O)NC3(CCC3)C(=O)N(C)[C@@H](C(CC)CC)C(=O)N(C)[C@H](C(=O)N3CCCC3)CC(=O)N(C)[C@@H](COC)C(=O)N[C@@H]([C@@H](C)CC)C(=O)N(C)CC(=O)N(C)[C@H]3C/C=C\CCN(C3=O)[C@@H](CC3CCCCC3)C(=O)N(C)CC(=O)N[C@@H](CCc3cc(F)c(C(F)(F)F)c(F)c3)C(=O)N2C1 [PP1438]
HRAS/KRAS (ratio of KD value for HRAS to KD value for KRAS) ([1]; KD ratio class): A (a compound having 10 or more and less than 20 is denoted as A)
IC50 [2]: 89.4 nM
NRAS/KRAS (ratio of KD value for NRAS to KD value for KRAS) ([3]; KD ratio class): AA (a compound having 20 or more is denoted as AA)
Kd [4, 5]: 0.55 nM

CCO[C@@H]1C[C@H]2C(=O)NC3(CCC3)C(=O)N(C)[C@@H](C3CCCC3)C(=O)N(C)[C@H](C(=O)N(C)C)CC(=O)N(C)[C@@H](CC3CCCC3)C(=O)N[C@@H]([C@@H](C)CC)C(=O)N(C)CC(=O)N(C)[C@H]3C/C=C\CCN(C3=O)[C@@H](Cc3ccc(C(F)(F)F)cc3)C(=O)N(C)CC(=O)N[C@@H](CCc3cc(F)c(Cl)c(F)c3)C(=O)N2C1 [PP1264]
HRAS/KRAS (ratio of KD value for HRAS to KD value for KRAS) ([1]; KD ratio class): B (a compound having 3 or more and less than 10 is denoted as B)
IC50 [2]: 15.9 nM
NRAS/KRAS (ratio of KD value for NRAS to KD value for KRAS) ([3]; KD ratio class): A (a compound having 10 or more and less than 20 is denoted as A)
Kd [4, 5]: 0.37 nM

CCO[C@@H]1C[C@H]2C(=O)NC3(CCC3)C(=O)N(C)[C@@H](C3CCCC3)C(=O)N(C)[C@H](C(=O)N(C)C)CC(=O)N(C)[C@@H](Cc3cccs3)C(=O)N[C@@H]([C@@H](C)CC)C(=O)N(C)CC(=O)N(C)[C@H]3CCCCCN(C3=O)[C@@H](Cc3ccc(C(F)(F)F)cc3)C(=O)N(C)CC(=O)N[C@@H](CCc3cc(F)c(C(F)(F)F)c(F)c3)C(=O)N2C1 [PP1169]
HRAS/KRAS (ratio of KD value for HRAS to KD value for KRAS) [1]: B (a compound having 3 or more and less than 10 is denoted as B)
IC50 [2]: 74 nM
NRAS/KRAS (ratio of KD value for NRAS to KD value for KRAS) [3]: B (a compound having 3 or more and less than 10 is denoted as B)
Kd ([4]; SPR, Single Cycle Kinetics): 0.32 nM

CCO[C@@H]1C[C@H]2C(=O)NC3(CCC3)C(=O)N(C)[C@@H](C(CC)CC)C(=O)N(C)[C@H](C(=O)N(C)C)CC(=O)N(C)[C@@H](CC3CC3)C(=O)N[C@@H]([C@@H](C)CC)C(=O)N(C)CC(=O)N(C)[C@H]3C/C=C\CCN(C3=O)[C@@H](Cc3ccc(C(F)(F)F)cc3)C(=O)N(C)CC(=O)N[C@@H](CCc3ccc(C(F)(F)F)c(OC)c3)C(=O)N2C1 [PP1211]
HRAS/KRAS (ratio of KD value for HRAS to KD value for KRAS) ([1]; KD ratio class): B (a compound having 3 or more and less than 10 is denoted as B)
IC50 [2]: 26.8 nM
NRAS/KRAS (ratio of KD value for NRAS to KD value for KRAS) ([3]; KD ratio class): A (a compound having 10 or more and less than 20 is denoted as A)
Kd [4, 5]: 0.27 nM

CCO[C@@H]1C[C@H]2C(=O)NC3(CCC3)C(=O)N(C)[C@@H](C3CCCC3)C(=O)N(C)[C@H](C(=O)N3CCOCC3)CC(=O)N(C)[C@@H](CC(F)F)C(=O)N[C@@H]([C@@H](C)CC)C(=O)N(C)CC(=O)N(C)[C@H]3CCCCCN(C3=O)[C@@H](Cc3ccc(F)cc3)C(=O)N(C)CC(=O)N[C@@H](CCc3cc(F)c(C(F)(F)F)c(F)c3)C(=O)N2C1 [PP1177]
HRAS/KRAS (ratio of KD value for HRAS to KD value for KRAS) [1]: B (a compound having 3 or more and less than 10 is denoted as B)
IC50 [2]: 32.5 nM
NRAS/KRAS (ratio of KD value for NRAS to KD value for KRAS) [3]: B (a compound having 3 or more and less than 10 is denoted as B)
Kd ([4]; SPR, Single Cycle Kinetics): 0.081 nM

CCO[C@@H]1C[C@H]2C(=O)NC3(CCC3)C(=O)N(C)[C@@H](C3CCCC3)C(=O)N(C)[C@H](C(=O)N(C)C)CC(=O)N(C)[C@@H](CC3CCCC3)C(=O)N[C@@H]([C@@H](C)CC)C(=O)N(C)CC(=O)N(C)[C@H]3C/C=C\CCN(C3=O)[C@@H](CC3CCCCC3)C(=O)N(C)CC(=O)N[C@@H](CCc3cc(F)c(C(F)(F)F)c(F)c3)C(=O)N2C1 [PP1472, (2S,8S,12R,14S,20S,23S,27S,30S,36S,38Z)-2-(cyclohexylmethyl)-20-cyclopentyl-27-(cyclopentylmethyl)-8-[2-[3,5-difluoro-4-(trifluoromethyl)phenyl]ethyl]-12-ethoxy-N,N,4,19,22,26,32,35-octamethyl-30-[(1S)-1-methylpropyl]-3,6,9,15,18,21,25,28,31,34,42-undecaoxo-spiro[1,4,7,10,16,19,22,26,29,32,35-undecazatricyclo[34.5.1.0^10,14]dotetracont-38-ene-17,1′-cyclobutane]-23-carboxamide]
HRAS/KRAS (ratio of KD value for HRAS to KD value for KRAS) ([1]; KD ratio class): A (a compound having 10 or more and less than 20 is denoted as A)
IC50 [2]: 37.1 nM
NRAS/KRAS (ratio of KD value for NRAS to KD value for KRAS) ([3]; KD ratio class): A (a compound having 10 or more and less than 20 is denoted as A)
Kd [4, 5]: 0.14 nM

CC[C@H](C)[C@@H]1NC(=O)[C@H](CC)N(C)C(=O)C[C@@H](C(=O)N2CCOCC2)N(C)C(=O)[C@H](C2CCCC2)N(C)C(=O)C2(CCC2)NC(=O)[C@@H]2CCCN2C(=O)[C@H](CCc2cc(F)c(C(F)(F)F)c(F)c2)NC(=O)CN(C)C(=O)[C@H](Cc2ccc(C(F)(F)F)cc2)N2C[C@H](C)CC[C@@H](C2=O)N(C)C(=O)CN(C)C1=O [PP1384]
HRAS/KRAS (ratio of KD value for HRAS to KD value for KRAS) ([1]; KD ratio class): B (a compound having 3 or more and less than 10 is denoted as B)
IC50 [2]: 13.5 nM
NRAS/KRAS (ratio of KD value for NRAS to KD value for KRAS) ([3]; KD ratio class): A (a compound having 10 or more and less than 20 is denoted as A)
Kd [4, 5]: 0.11 nM

CC[C@H](C)[C@@H]1NC(=O)[C@H](CC(C)C)N(C)C(=O)C[C@@H](C(=O)N(C)C)N(C)C(=O)[C@H](C2CCCC2)N(C)C(=O)C2(CCC2)NC(=O)[C@@H]2CCCN2C(=O)[C@H](CCc2cc(F)c(C(F)(F)F)c(F)c2)NC(=O)CN(C)C(=O)[C@H](Cc2ccc(C(F)(F)F)cc2)N2CC/C=C\C[C@@H](C2=O)N(C)C(=O)CN(C)C1=O [PP1272, (2S,8S,14S,20S,23S,27S,30S,36S,38Z)-20-cyclopentyl-8-[2-[3,5-difluoro-4-(trifluoromethyl)phenyl]ethyl]-27-isobutyl-N,N,4,19,22,26,32,35-octamethyl-30-[(1S)-1-methylpropyl]-3,6,9,15,18,21,25,28,31,34,42-undecaoxo-2-[[4-(trifluoromethyl)phenyl]methyl]spiro[1,4,7,10,16,19,22,26,29,32,35-undecazatricyclo[34.5.1.0^10,14]dotetracont-38-ene-17,1′-cyclobutane]-23-carboxamide]
HRAS/KRAS (ratio of KD value for HRAS to KD value for KRAS) ([1]; KD ratio class): A (a compound having 10 or more and less than 20 is denoted as A)
IC50 [2]: 24 nM
NRAS/KRAS (ratio of KD value for NRAS to KD value for KRAS) ([3]; KD ratio class): A (a compound having 10 or more and less than 20 is denoted as A)
Kd [4, 5]: 0.11 nM

CCOC[C@H]1C(=O)N[C@@H]([C@@H](C)CC)C(=O)N(C)CC(=O)N(C)[C@H]2C/C=C\CCN(C2=O)[C@@H](Cc2ccc(C)cc2)C(=O)N(C)CC(=O)N[C@@H](CCc2cc(F)c(C(F)(F)F)c(F)c2)C(=O)N2C[C@H](OCC)C[C@H]2C(=O)NC2(CC(C)(C)C2)C(=O)N(C)[C@@H](C2CCCC2)C(=O)N(C)[C@H](C(=O)N(C)CC)CC(=O)N1C [PP2404]
HRAS/KRAS (ratio of KD value for HRAS to KD value for KRAS) [1]: A (a compound having 10 or more and less than 20 is denoted as A)
IC50 [2]: 4.1 nM
NRAS/KRAS (ratio of KD value for NRAS to KD value for KRAS) [3]: A (a compound having 10 or more and less than 20 is denoted as A)
Kd ([4]; SPR, Single Cycle Kinetics): 0.09 nM
